According to patent US12371428B2 (Exelixis, Inc., priority 2019, dated 2025):

What was measured:
[1] = biological target: Human KDR (residues 790-1356) (Homo sapiens (Human), UniProt P35968); assay: Human KDR kinase assay, HTRF KinEase (Example B-2); type: biochemical
Experimental: (§1) Kinase activity and compound inhibition were also investigated using the HTRF® KinEase assay (Cisbio Cat #62TKOPEB) per manufacturer's instructions. In short, compounds were delivered in 300 nL volumes at 10 different concentrations in DMSO (3% final) to empty 384-well assay plates (Corning cat #3824). A mixture of enzyme, […] biotynlated peptide substrate, and buffer in 10 μL volume was added. The assay was started upon the addition of ATP (at Km). The 10 μL reaction was incubated at room temperature. The reaction was stopped upon the addition of detection buffer containing streptavidin-XL665 ([…]) and TK antibody-Eu3+([…]). After a 60 min incubation at room temperature, the fluorescence at 665 nm and 620 nm was read on an Envision microplate reader (Perkin Elmer).
(§2) Kinase activity normalized to DMSO (100% activity) and reference compound at […] and (0% activity) was calculated using the fluorescence ratio […]. IC50 values were calculated by nonlinear regression analysis using a 4-parameter logistic curve fit in ActivityBase XE (IDBS).
Example B-2: Human KDR (residues 790-1356; CarnaBio, 0.1 ng/well) was also incubated with enzymatic buffer (Cisbio) supplemented with 5 mM MgCl2, 1 mM MnCl2, and 1 mM DTT. The mixture was added to the pre-plated compounds. The reaction was initiated upon addition of ATP at Km (4.0 μM). The reaction was incubated at room temperature for 40 min and stopped upon the addition of SA-XL665 and TK-antibody both diluted in EDTA-containing kinase detection buffer (Cisbio). The kinase activity was calculated as stated above and the IC50 values were reported.

[2] = biological target: Human MER (residues 528-999) (Homo sapiens (Human), UniProt Q12866); assay: Human Mer kinase assay, HTRF KinEase (Example C-2); type: biochemical
Sequence of Human MER (residues 528-999) (Q12866 528-999): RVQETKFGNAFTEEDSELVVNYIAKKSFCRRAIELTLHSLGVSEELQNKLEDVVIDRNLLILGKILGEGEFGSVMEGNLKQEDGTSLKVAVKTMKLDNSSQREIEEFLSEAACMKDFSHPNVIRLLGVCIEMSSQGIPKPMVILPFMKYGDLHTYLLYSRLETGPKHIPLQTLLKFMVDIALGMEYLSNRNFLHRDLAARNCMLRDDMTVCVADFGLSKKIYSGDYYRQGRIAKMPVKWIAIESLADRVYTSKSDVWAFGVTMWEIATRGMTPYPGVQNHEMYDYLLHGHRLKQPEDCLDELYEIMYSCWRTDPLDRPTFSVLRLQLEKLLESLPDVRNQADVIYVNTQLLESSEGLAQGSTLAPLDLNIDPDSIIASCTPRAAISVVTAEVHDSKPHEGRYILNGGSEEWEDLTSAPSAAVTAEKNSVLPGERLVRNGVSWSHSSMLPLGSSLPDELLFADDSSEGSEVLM
Experimental: as §1, §2
Example C-2: Human MER (residues 528-999; CarnaBio, 1 ng/well) was also incubated with enzymatic buffer (Cisbio) supplemented with 5 mM MgCl2 and 1 mM DTT. The mixture was added to the pre-plated compounds. The reaction was initiated upon addition of ATP at Km (40 μM). The reaction was incubated at room temperature for 60 min and stopped upon the addition of SA-XL665 and TK-antibody both diluted in EDTA-containing kinase detection buffer (Cisbio). The kinase activity was calculated as stated above and the IC50 values were reported.

[3] = biological target: Met (phospho-Met, HGF-stimulated PC-3 prostate cancer cells) (Homo sapiens (Human), UniProt P08581); assay: Met autophosphorylation ELISA in PC-3 cells (Example F); type: cell-based; conditions: cellular activity; Met autophosphorylation ELISA in PC-3 cells; read-out: c-Met IC50
Sequence of Met (phospho-Met, HGF-stimulated PC-3 prostate cancer cells) (P08581 25-1390): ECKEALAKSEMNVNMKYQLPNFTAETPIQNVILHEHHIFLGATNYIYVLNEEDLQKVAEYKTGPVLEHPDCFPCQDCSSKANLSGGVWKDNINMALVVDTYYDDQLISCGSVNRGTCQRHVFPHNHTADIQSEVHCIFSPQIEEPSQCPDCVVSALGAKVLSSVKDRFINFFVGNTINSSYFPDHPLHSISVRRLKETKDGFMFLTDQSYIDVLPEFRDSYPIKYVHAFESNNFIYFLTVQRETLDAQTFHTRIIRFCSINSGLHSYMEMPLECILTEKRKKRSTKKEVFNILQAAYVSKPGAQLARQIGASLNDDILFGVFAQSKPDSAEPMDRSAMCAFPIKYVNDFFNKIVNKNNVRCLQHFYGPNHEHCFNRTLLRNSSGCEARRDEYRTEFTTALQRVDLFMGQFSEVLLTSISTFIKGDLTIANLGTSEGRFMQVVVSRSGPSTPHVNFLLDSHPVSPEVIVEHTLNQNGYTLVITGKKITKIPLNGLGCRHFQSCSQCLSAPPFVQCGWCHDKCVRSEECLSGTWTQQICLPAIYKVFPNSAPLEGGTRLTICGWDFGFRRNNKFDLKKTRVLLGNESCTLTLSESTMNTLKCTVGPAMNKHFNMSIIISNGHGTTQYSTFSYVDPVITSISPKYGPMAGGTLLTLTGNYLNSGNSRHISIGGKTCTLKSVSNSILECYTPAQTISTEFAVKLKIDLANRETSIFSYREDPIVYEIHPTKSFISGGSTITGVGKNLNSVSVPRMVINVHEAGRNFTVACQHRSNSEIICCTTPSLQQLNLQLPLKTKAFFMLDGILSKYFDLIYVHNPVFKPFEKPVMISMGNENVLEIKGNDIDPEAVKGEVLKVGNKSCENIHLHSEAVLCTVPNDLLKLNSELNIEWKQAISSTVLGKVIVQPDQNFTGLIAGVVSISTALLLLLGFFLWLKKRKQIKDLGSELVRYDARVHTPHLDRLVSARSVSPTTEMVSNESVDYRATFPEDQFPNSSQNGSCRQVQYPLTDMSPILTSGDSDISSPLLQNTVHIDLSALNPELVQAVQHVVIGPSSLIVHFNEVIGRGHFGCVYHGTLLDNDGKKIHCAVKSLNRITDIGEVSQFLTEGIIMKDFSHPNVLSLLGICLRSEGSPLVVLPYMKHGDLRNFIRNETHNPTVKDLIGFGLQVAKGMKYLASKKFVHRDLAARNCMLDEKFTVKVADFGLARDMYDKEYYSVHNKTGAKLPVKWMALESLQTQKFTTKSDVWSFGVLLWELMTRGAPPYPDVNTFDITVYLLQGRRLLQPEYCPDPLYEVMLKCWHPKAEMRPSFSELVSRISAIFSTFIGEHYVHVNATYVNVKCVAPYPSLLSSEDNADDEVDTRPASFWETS
How it was run: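 PC-3 cells, serum-starved 3 h, were treated with compounds (8-point dose curve, 0.3% DMSO final) for 1 h, then stimulated with 100 ng/mL recombinant human HGF for 10 min. Lysate phospho-Met (panTyr) was quantified by sandwich ELISA; IC50 from 4-parameter logistic fit.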

[4] = biological target: KDR (phospho-KDR, VEGF165-stimulated HUVEC cells) (Homo sapiens (Human), UniProt P35968); assay: KDR autophosphorylation ELISA in HUVEC cells (Example G); type: cell-based; conditions: cellular activity; KDR autophosphorylation ELISA in HUVEC cells
Sequence of KDR (phospho-KDR, VEGF165-stimulated HUVEC cells) (P35968 20-1356): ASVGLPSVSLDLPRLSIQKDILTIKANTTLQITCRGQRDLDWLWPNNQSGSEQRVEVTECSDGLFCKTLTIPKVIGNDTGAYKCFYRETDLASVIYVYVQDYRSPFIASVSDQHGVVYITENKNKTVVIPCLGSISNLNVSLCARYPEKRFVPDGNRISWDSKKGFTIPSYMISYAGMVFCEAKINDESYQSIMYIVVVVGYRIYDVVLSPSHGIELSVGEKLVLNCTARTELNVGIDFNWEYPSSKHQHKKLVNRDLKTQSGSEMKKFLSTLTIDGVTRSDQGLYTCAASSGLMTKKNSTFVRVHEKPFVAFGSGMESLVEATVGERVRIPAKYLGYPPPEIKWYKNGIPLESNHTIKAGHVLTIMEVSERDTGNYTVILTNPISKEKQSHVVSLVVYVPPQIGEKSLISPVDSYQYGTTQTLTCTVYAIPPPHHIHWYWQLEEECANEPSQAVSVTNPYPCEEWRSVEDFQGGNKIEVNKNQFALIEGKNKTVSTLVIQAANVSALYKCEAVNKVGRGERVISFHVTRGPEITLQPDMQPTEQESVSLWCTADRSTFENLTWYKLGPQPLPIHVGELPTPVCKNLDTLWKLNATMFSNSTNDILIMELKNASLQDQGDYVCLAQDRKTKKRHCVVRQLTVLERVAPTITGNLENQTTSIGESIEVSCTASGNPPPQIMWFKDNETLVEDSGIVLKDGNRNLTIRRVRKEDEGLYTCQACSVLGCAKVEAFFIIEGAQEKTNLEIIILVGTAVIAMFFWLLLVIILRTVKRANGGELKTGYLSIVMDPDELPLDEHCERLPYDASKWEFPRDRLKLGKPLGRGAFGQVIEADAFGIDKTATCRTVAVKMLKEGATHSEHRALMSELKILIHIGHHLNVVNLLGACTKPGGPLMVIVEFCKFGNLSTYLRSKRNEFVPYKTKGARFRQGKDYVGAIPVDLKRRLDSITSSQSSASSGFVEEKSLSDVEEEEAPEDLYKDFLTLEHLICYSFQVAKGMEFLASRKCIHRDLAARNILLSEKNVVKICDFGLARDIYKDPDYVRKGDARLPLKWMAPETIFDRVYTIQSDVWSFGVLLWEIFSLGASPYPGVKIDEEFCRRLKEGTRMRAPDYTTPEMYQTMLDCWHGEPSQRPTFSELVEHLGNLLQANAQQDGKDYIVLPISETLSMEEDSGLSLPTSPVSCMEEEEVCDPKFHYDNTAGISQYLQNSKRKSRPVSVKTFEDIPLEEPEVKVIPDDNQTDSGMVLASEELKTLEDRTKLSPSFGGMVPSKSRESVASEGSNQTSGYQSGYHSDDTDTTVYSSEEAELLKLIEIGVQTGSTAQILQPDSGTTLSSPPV
How it was run: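 IC50 values derive from nonlinear curve fitting of phospho-KDR levels measured by ELISA and interpolated from a phosphoprotein standard. Beforehand, starved HUVECs received compound (0.3% DMSO vehicle) for one hour and were activated with VEGF165 at 100 ng/mL for 5 min.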

[5] = biological target: Mer (phospho-Mer, MERTK-transfected 293A cells) (Homo sapiens (Human), UniProt Q12866); assay: Mer autophosphorylation ELISA in transient transfected 293A cells (Example H); type: cell-based; conditions: cellular activity; Mer autophosphorylation ELISA in transient transfected 293A cells
Sequence of Mer (phospho-Mer, MERTK-transfected 293A cells) (Q12866 21-999): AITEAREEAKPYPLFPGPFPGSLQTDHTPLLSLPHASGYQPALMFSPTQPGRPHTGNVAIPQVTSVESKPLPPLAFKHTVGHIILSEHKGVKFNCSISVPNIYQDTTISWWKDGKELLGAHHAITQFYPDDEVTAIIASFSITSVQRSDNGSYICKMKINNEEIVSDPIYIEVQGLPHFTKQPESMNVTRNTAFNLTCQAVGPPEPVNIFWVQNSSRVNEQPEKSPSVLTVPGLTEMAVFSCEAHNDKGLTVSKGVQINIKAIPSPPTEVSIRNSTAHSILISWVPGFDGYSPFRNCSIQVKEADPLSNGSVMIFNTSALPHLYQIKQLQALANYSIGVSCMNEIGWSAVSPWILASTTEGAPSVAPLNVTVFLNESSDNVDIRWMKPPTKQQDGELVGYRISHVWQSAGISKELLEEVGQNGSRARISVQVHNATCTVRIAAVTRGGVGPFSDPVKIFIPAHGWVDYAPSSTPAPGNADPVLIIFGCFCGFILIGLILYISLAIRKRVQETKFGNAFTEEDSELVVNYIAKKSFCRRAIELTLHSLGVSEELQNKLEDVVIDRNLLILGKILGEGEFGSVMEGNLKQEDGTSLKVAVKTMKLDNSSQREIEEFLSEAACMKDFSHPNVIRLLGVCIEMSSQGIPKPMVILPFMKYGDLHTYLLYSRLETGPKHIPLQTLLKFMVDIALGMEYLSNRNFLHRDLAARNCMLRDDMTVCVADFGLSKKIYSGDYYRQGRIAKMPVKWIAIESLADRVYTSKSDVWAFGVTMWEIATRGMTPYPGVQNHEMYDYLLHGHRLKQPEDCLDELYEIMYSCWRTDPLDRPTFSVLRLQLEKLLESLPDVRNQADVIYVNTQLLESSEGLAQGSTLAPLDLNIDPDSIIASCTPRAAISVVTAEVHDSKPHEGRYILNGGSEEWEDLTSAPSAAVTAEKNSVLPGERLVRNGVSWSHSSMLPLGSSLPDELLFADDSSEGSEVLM
How it was run: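 Inhibition of cellular Mer autophosphorylation is determined in 293A cells transiently expressing human MERTK after 1 h compound exposure (8 concentrations, serum-free, 0.3% DMSO). Phospho-Mer in clarified lysates is measured by ELISA, with DMSO and reference-inhibitor wells defining the 100% and 0% activity limits.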

[6] = protocol of Example B-2 (other compounds)
[7] = protocol of Example C-2 (other compounds)

Sequence of Human KDR (residues 790-1356) (P35968 790-1356): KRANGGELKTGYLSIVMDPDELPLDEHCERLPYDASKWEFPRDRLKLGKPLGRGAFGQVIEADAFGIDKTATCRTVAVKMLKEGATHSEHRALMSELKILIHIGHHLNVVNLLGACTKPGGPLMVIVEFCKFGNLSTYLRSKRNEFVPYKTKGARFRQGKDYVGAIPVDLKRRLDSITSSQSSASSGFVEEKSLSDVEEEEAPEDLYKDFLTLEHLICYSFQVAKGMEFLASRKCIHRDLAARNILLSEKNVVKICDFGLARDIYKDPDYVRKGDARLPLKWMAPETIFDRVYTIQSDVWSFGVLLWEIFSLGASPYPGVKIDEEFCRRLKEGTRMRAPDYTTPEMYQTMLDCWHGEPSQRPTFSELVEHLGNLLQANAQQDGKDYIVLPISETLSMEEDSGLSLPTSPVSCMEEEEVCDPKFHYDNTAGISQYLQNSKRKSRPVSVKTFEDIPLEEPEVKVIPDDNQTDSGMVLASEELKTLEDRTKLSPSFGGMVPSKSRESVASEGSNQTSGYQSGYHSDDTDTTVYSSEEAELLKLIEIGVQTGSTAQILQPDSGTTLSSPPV

SMILES | IC50 [1, 6] [nM] | IC50 [2, 7] [nM] | IC50 [3] [nM] | IC50 [4] [nM] | IC50 [5] [nM] | IC50 ([1]; protocol of Example B-2) [nM] | IC50 ([2]; protocol of Example C-2) [nM]
COc1cc2nccc(Oc3ccc(NC(=O)c4c(C)c(Br)c(C)n(-c5ccc(F)cc5)c4=O)cc3F)c2nc1OC [Compound 305, 5-Bromo-N-[4-[(6,7-dimethoxy-1,5-naphthyridin-4-yl)oxy]-3-fluorophenyl]-1-(4-fluorophenyl)-4,6-dimethyl-2-oxopyridine-3-carboxamide] | > 300 | < 100 | < 100 | 100 to 300 | < 100 |  | 
O=C(Nc1ccc(Oc2ccnc3cccnc23)c(F)c1)c1cccn(-c2ccc(F)cc2)c1=O [Compound 304, N-[3-Fluoro-4-(1,5-naphthyridin-4-yloxy)phenyl]-1-(4-fluorophenyl)-2-oxopyridine-3-carboxamide] | > 300 | < 100 | < 100 | 100 to 300 | < 100 |  | 
Cc1ccc(C(=O)Nc2ccc(Oc3ccnc4cccnc34)c(F)c2)c(=O)n1-c1ccc(F)cc1 [Compound 302, N-[3-Fluoro-4-(1,5-naphthyridin-4-yloxy)phenyl]-1-(4-fluorophenyl)-6-methyl-2-oxopyridine-3-carboxamide] | > 300 | < 100 | < 100 | 100 to 300 | < 100 |  | 
COc1cc2nccc(Oc3ccc(NC(=O)c4c(C)c(C)c(C)n(-c5ccc(F)cc5)c4=O)cc3F)c2nc1OC [Compound 306, N-[4-[(6,7-Dimethoxy-1,5-naphthyridin-4-yl)oxy]-3-fluorophenyl]-1-(4-fluorophenyl)-4,5,6-trimethyl-2-oxopyridine-3-carboxamide] | > 300 | < 100 | < 100 | 100 to 300 | < 100 |  | 
COc1cnc2c(Oc3ccc(NC(=O)c4c(C)c(Cl)c(C)n(-c5ccc(F)cc5)c4=O)cc3F)ccnc2c1 [Compound 309, 5-Chloro-N-[3-fluoro-4-[(7-methoxy-1,5-naphthyridin-4-yl)oxy]phenyl]-1-(4-fluorophenyl)-4,6-dimethyl-2-oxopyridine-3-carboxamide] | > 300 | < 100 | < 100 | > 300 | < 100 |  | 
COc1cnc2c(Oc3ccc(NC(=O)c4c(C)c(Cl)c(C)n(-c5ccc(F)cc5)c4=O)cc3)ccnc2c1 [Compound 310, 5-Chloro-1-(4-fluorophenyl)-N-[4-[(7-methoxy-1,5-naphthyridin-4-yl)oxy]phenyl]-4,6-dimethyl-2-oxopyridine-3-carboxamide] | > 300 | 100 to 300 | < 100 | > 300 | < 100 |  | 
CCOc1c(C)cn(-c2ccc(F)cc2)c(=O)c1C(=O)Nc1ccc(Oc2ccnc3cc(OC)c(OC)nc23)c(F)c1 [Compound 371, N-[4-[(6,7-dimethoxy-1,5-naphthyridin-4-yl)oxy]-3-fluorophenyl]-4-ethoxy-1-(4-fluorophenyl)-5-methyl-2-oxopyridine-3-carboxamide] | < 100 | < 100 | < 100 | < 100 | < 100 |  | 
COc1cc2nccc(Oc3ccc(NC(=O)c4c(C)c(Cl)c(C)n(-c5ccc(F)cc5)c4=O)cc3)c2nc1OC [Compound 307, 5-Chloro-N-[4-[(6,7-dimethoxy-1,5-naphthyridin-4-yl)oxy]phenyl]-1-(4-fluorophenyl)-4,6-dimethyl-2-oxopyridine-3-carboxamide] | > 300 | < 100 | < 100 | > 300 | < 100 |  | 

Next, values leading:

IC50 [1, 6] [nM] | IC50 [2, 7] [nM] | IC50 [3] [nM] | IC50 [4] [nM] | IC50 [5] [nM] | IC50 ([1]; protocol of Example B-2) [nM] | IC50 ([2]; protocol of Example C-2) [nM] | SMILES
> 300 | < 100 | < 100 | > 300 | < 100 |  |  | COc1ccc2nccc(Oc3ccc(NC(=O)c4cnc(C)n(-c5ccc(F)cc5)c4=O)cc3)c2n1 [Compound 385, 1-(4-fluorophenyl)-N-[4-[(6-methoxy-1,5-naphthyridin-4-yl)oxy]phenyl]-2-methyl-6-oxopyrimidine-5-carboxamide]
 |  | < 100 | < 100 | < 100 | > 300 | 100 to 300 | COc1cnc2c(Oc3ccc(NC(=O)c4ccnn(-c5ccc(F)cc5C)c4=O)cc3F)ccnc2c1 [Compound 529, N-[3-fluoro-4-[(7-methoxy-1,5-naphthyridin-4-yl)oxy]phenyl]-2-(4-fluoro-2-methylphenyl)-3-oxopyridazine-4-carboxamide]
< 100 | < 100 | < 100 | < 100 | < 100 |  |  | COc1cc2nccc(Oc3ccc(NC(=O)c4c(OC)c(C)cn(-c5ccc(F)cc5)c4=O)cc3F)c2nc1OC [Compound 372, N-[4-[(6,7-dimethoxy-1,5-naphthyridin-4-yl)oxy]-3-fluorophenyl]-1-(4-fluorophenyl)-4-methoxy-5-methyl-2-oxopyridine-3-carboxamide]
< 100 | < 100 | < 100 | < 100 | < 100 |  |  | CNC(=O)Cc1cc2c(Oc3ccc(NC(=O)c4cnc(C)c(-c5ccc(F)cc5)c4O)cc3F)ccnc2cc1OC [Compound 376, N-[3-fluoro-4-[7-methoxy-6-[2-(methylamino)-2-oxoethyl]quinolin-4-yl]oxyphenyl]-5-(4-fluorophenyl)-4-hydroxy-6-methylpyridine-3-carboxamide]
 |  | < 100 | < 100 | < 100 | < 100 | < 100 | CCOc1c(C(=O)Nc2ccc(Oc3ccnc4cc(OC)c(OC)nc34)c(F)c2)nnc(C)c1-c1ccc(F)cc1 [Compound 569, N-[4-[(6,7-Dimethoxy-1,5-naphthyridin-4-yl)oxy]-3-fluorophenyl]-4-ethoxy-5-(4-fluorophenyl)-6-methylpyridazine-3-carboxamide]
 |  | < 100 | > 300 | < 100 | > 300 | < 100 | COc1cnc2c(Oc3ccc(NC(=O)c4nn(C(C)C)c(C)c(-c5ccc(F)cc5)c4=O)cc3F)ccnc2c1 [Compound 566, N-[3-Fluoro-4-[(7-methoxy-1,5-naphthyridin-4-yl)oxy]phenyl]-5-(4-fluorophenyl)-6-methyl-4-oxo-1-propan-2-ylpyridazine-3-carboxamide]
 |  | < 100 | > 300 | < 100 | > 300 | < 100 | CNC(=O)c1c(-c2ccc(F)cc2)c(=O)c(C(=O)Nc2ccc(Oc3ccnc4cc(OC)c(OC)nc34)c(F)c2)cn1C [Compound 563, 5-N-[4-[(6,7-Dimethoxy-1,5-naphthyridin-4-yl)oxy]-3-fluorophenyl]-3-(4-fluorophenyl)-2-N,1-dimethyl-4-oxopyridine-2,5-dicarboxamide]
 |  | < 100 | < 100 | < 100 | < 100 | < 100 | COc1cnc2c(Oc3ccc(NC(=O)c4nnc(C)c(-c5ccc(F)cc5)c4OC(C)C)cc3F)ccnc2c1 [Compound 567, N-[3-Fluoro-4-[(7-methoxy-1,5-naphthyridin-4-yl)oxy]phenyl]-5-(4-fluorophenyl)-6-methyl-4-propan-2-yloxypyridazine-3-carboxamide]
 |  | < 100 | < 100 | < 100 | 100 to 300 | < 100 | COc1cc2nccc(Oc3ccc(NC(=O)c4ccnn(-c5ccc(F)cc5C)c4=O)cc3)c2nc1OC [Compound 528, N-[4-[(6,7-dimethoxy-1,5-naphthyridin-4-yl)oxy]phenyl]-2-(4-fluoro-2-methylphenyl)-3-oxopyridazine-4-carboxamide]
